Results from PubChem BioAssay AID200 (DTP/NCI, 2004).
Several values for one entry are separate records, joined by “and”; a condition that tells them apart may be missing. Equal entries are not always repeated. Inconclusive results and toxic doses are left out.

System: B6C3F1 mice, B16 melanoma ip, median survival T/C
Test: NCI In Vivo Anticancer Drug Screen. Data for tumor model B16 Melanoma (intraperitoneal) in B6C3F1 mice
Conditions: endpoint: median survival time, schedule: Q01DX009 (ip), higher = longer survival
In short: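 Transplantable tumor in mice; treated vs vehicle control groups; survival or tumor size measured; value = T/C ratio.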

[1] = dose: 12.5 mg/kg/injection, vehicle: saline
[2] = dose: 6.25 mg/kg/injection, vehicle: saline with Tween-80
[3] = dose: 12.5 mg/kg/injection, vehicle: saline with Tween-80

## CCOC(=O)N1CCN(CCCCCOc2ccc(CC(C)(C)C)cc2Cl)CC1
dose: 3.13 mg/kg/injection, vehicle: saline
  T/C: 109 % of control
dose: 6.25 mg/kg/injection, vehicle: saline
  T/C: 121 % of control
[1]
  T/C: 112 % of control
dose: 25.0 mg/kg/injection, vehicle: saline
  T/C: 101 % of control

## CN1CCN(CN2C(=O)C3C4C=CC(C3C2=O)C2C3C(=O)N(CN5CCN(C)CC5)C(=O)C3C42)CC1 (centres undefined)
dose: 16.1 mg/kg/injection, vehicle: water
  T/C: 103 % of control
dose: 21.6 mg/kg/injection, vehicle: water
  T/C: 104 % of control
dose: 26.8 mg/kg/injection, vehicle: water
  T/C: 98 % of control
dose: 36.0 mg/kg/injection, vehicle: water
  T/C: 102 % of control
dose: 44.7 mg/kg/injection, vehicle: water
  T/C: 107 % of control
dose: 60.0 mg/kg/injection, vehicle: water
  T/C: 104 % of control
dose: 74.5 mg/kg/injection, vehicle: water
  T/C: 103 % of control
dose: 100.0 mg/kg/injection, vehicle: water
  T/C: 120 % of control

## NC(=O)/C=C/c1c[nH]c2nccnc12
dose: 1.56 mg/kg/injection, vehicle: water
  T/C: 86 % of control
dose: 3.12 mg/kg/injection, vehicle: water
  T/C: 93 % of control
dose: 6.25 mg/kg/injection, vehicle: water
  T/C: 95 % of control
dose: 12.5 mg/kg/injection, vehicle: water
  T/C: 102 % of control
dose: 25.0 mg/kg/injection, vehicle: water
  T/C: 108 % of control

## Cc1cc(N=NC(N)=S)c2ccccc2c1O
dose: 3.13 mg/kg/injection, vehicle: saline with Tween-80
  T/C: 94 % of control
[2]
  T/C: 86 % of control
[3]
  T/C: 87 % of control

## O=CC(CO)CC(C=O)n1cnc2c(=O)[nH]cnc21 (centres undefined)
dose: 37.5 mg/kg/injection, vehicle: saline
  T/C: 106 % of control
dose: 75.0 mg/kg/injection, vehicle: saline
  T/C: 108 % of control
dose: 150.0 mg/kg/injection, vehicle: saline
  T/C: 100 % of control
dose: 300.0 mg/kg/injection, vehicle: saline
  T/C: 111 % of control

## C=C(OC)C(Nc1cc(OC)c(OC)cc1C(=O)OC1CC(O[C@@H]2C(=O)C(NC(=O)OC)=C3/C(=C\CSSSC)[C@]2(O)C#C/C=C\C#C[C@@H]3OC2OC(C)C(NOC3CC(O)C(SC)C(C)O3)C(O)C2OC2CC(OC)C(NCCC)CO2)OC(C)C1O)OC (some centres undefined)
dose: 0.16 micrograms/kg/injection, vehicle: saline + alcohol
  T/C: 191 % of control
dose: 0.32 micrograms/kg/injection, vehicle: saline + alcohol
  T/C: 162 % of control
dose: 0.63 micrograms/kg/injection, vehicle: saline + alcohol
  T/C: 170 % of control
dose: 2.5 nanograms/kg/injection, vehicle: saline + alcohol
  T/C: 119 % of control
dose: 4.0 nanograms/kg/injection, vehicle: saline + alcohol
  T/C: 93 % of control
dose: 5.0 nanograms/kg/injection, vehicle: saline + alcohol
  T/C: 109 % of control
dose: 14.0 nanograms/kg/injection, vehicle: saline + alcohol
  T/C: 102 % of control
dose: 20.0 nanograms/kg/injection, vehicle: saline + alcohol
  T/C: 155 % of control
dose: 24.0 nanograms/kg/injection, vehicle: saline + alcohol
  T/C: 103 % of control
dose: 40.0 nanograms/kg/injection, vehicle: saline + alcohol
  T/C: 219 % of control and 101 % of control
dose: 66.67 nanograms/kg/injection, vehicle: saline + alcohol
  T/C: 96 % of control
dose: 111.11 nanograms/kg/injection, vehicle: saline + alcohol
  T/C: 97 % of control

## CSc1cc(=O)n2c3ccccc3c3ccnc1c32
dose: 0.62 mg/kg/injection, vehicle: saline with Tween-80
  T/C: 96 % of control
dose: 1.25 mg/kg/injection, vehicle: saline with Tween-80
  T/C: 101 % of control
dose: 2.5 mg/kg/injection, vehicle: saline with Tween-80
  T/C: 105 % of control
dose: 5.0 mg/kg/injection, vehicle: saline with Tween-80
  T/C: 109 % of control
dose: 10.0 mg/kg/injection, vehicle: saline with Tween-80
  T/C: 114 % of control

## Nc1cccc(=O)[nH]1
dose: 25.0 mg/kg/injection, vehicle: suspension in saline
  T/C: 93 % of control
dose: 50.0 mg/kg/injection, vehicle: suspension in saline
  T/C: 95 % of control
dose: 100.0 mg/kg/injection, vehicle: suspension in saline
  T/C: 94 % of control
dose: 200.0 mg/kg/injection, vehicle: suspension in saline
  T/C: 94 % of control
dose: 400.0 mg/kg/injection, vehicle: suspension in saline
  T/C: 93 % of control

## CN(C)N=Nc1cccc2c1N(C)c1ccc(Cl)cc1S2
dose: 6.25 mg/kg/injection, vehicle: other
  T/C: 109 % of control
dose: 12.5 mg/kg/injection, vehicle: other
  T/C: 108 % of control
dose: 25.0 mg/kg/injection, vehicle: other
  T/C: 103 % of control
dose: 50.0 mg/kg/injection, vehicle: other
  T/C: 104 % of control
dose: 100.0 mg/kg/injection, vehicle: other
  T/C: 89 % of control

## NC(CSCc1ccccc1)C(=O)Nc1ccc([N+](=O)[O-])cc1 (centres undefined)
dose: 100.0 mg/kg/injection, vehicle: Klucel (hydroxypropylcellulose) (HPC)
  T/C: 115 % of control
dose: 200.0 mg/kg/injection, vehicle: Klucel (hydroxypropylcellulose) (HPC)
  T/C: 111 % of control
dose: 400.0 mg/kg/injection, vehicle: Klucel (hydroxypropylcellulose) (HPC)
  T/C: 116 % of control

## Cc1c2ccncc2c(COC2OC(CO)C(O)C2O)c2c3ccccc3n(C)c12 (centres undefined)
[1]
  T/C: 123 % of control
dose: 100.0 mg/kg/injection, vehicle: saline
  T/C: 98 % of control
dose: 200.0 mg/kg/injection, vehicle: saline
  T/C: 121 % of control

## CO[C@H]1C[C@H](O[C@H]2CC[C@@]3(C)[C@H](CC[C@@H]4[C@@H]3CC[C@]3(C)[C@@H](C5=CC(=O)OC5)CC[C@]43O)C2)O[C@H](C)[C@H]1O
dose: 1.9 mg/kg/injection, vehicle: Klucel (hydroxypropylcellulose) (HPC)
  T/C: 88 % of control
dose: 2.8 mg/kg/injection, vehicle: Klucel (hydroxypropylcellulose) (HPC)
  T/C: 100 % of control
dose: 4.3 mg/kg/injection, vehicle: Klucel (hydroxypropylcellulose) (HPC)
  T/C: 102 % of control
dose: 6.4 mg/kg/injection, vehicle: Klucel (hydroxypropylcellulose) (HPC)
  T/C: 94 % of control

## C=CC(=O)N1CN(C(=O)C=C)CN(C(=O)C=C)C1
dose: 0.78 mg/kg/injection, vehicle: saline with Tween-80
  T/C: 99 % of control
dose: 1.56 mg/kg/injection, vehicle: saline with Tween-80
  T/C: 100 % of control
dose: 3.12 mg/kg/injection, vehicle: saline with Tween-80
  T/C: 100 % of control
[2]
  T/C: 106 % of control
[3]
  T/C: 86 % of control

## O=C(O)[C@H](Cc1ccccc1)N1C(=O)c2ccccc2C1=O
dose: 50.0 mg/kg/injection, vehicle: DMSO
  T/C: 96 % of control
dose: 100.0 mg/kg/injection, vehicle: DMSO
  T/C: 99 % of control
dose: 200.0 mg/kg/injection, vehicle: DMSO
  T/C: 99 % of control
dose: 800.0 mg/kg/injection, vehicle: DMSO
  T/C: 88 % of control

## C/C1=C/C(C)C(O)C(O)C(=O)C2(C)CNC3=C(O2)C(=O)c2c(cc(C)c(O)c2C1=O)C3=O (centres undefined)
dose: 4.0 mg/kg/injection, vehicle: distilled water + Tween-80
  T/C: 103 % of control
dose: 8.0 mg/kg/injection, vehicle: distilled water + Tween-80
  T/C: 100 % of control
dose: 16.0 mg/kg/injection, vehicle: distilled water + Tween-80
  T/C: 105 % of control
dose: 32.0 mg/kg/injection, vehicle: distilled water + Tween-80
  T/C: 103 % of control
